Measurements as given in US11246961B2, “Engineered scaffolds for vascularized tissue repair” (The Regents of the University of California, priority 2016, dated 2022).
Entries after “also recorded” stand apart in the source; their conditions may differ.

Columns and labels:
[1] = test system: THP-1 monocytes; test: flow cytometry ligand-cell binding, THP-1 monocytes; conditions: biotinylated ligand 1 μM
Protocol: (§1) FIG. 10 presents flow cytometry data from an assay of binding affinity of LXW7 and GRGD (SEQ ID NO: 1) to different cell types. Tests included EPCs/ECs from different sources, including HECFCs (A), HCAECs (B), HMVECs (C), and THP-1 monocytes (D), Platelets (E), as well as K562 cells engineered to highly express αvβ3 (αvβ3-K562, F), and αIIbβ3 (αIIbβ3-K562, G). Cells were incubated with the LXW7-bio, GRGD-bio (SEQ ID NO: 1), or D-Biotin peptide and subsequently incubated with streptavidin-phycoerythrin. Flow cytometry analysis was performed to determine the binding affinity of the ligands. Samples treated with D-biotin were used as negative controls.
(§2) LXW7-bio (1 μM) was incubated with 3×10^5 HECFCs, HCAECs, HMVECs, αvβ3-K562 and αIIbβ3-K562 cells and THP-1 monocytes and 1×10^8 platelets in binding buffer (HEPES containing 10% FBS) on ice for 30 minutes. The samples were washed three times with DPBS containing 1% FBS and incubated with 2 μg/ml of streptavidin-phycoerythrin on ice for 30 minutes and then washed with DPBS. Samples were analyzed on a BD Fortessa LSR Cell Analyzer and further data analysis and gating were performed using FlowJo software (Treestar, Inc.).

[2] = test system: VEGFR2 (Tyr1175); test: Western-blot analysis, phosphorylation of VEGFR2; format: cell-based, human; conditions: LXW7 treated surface, 96 hours, vs D-biotin
Protocol: The 100-mm dishes from Example 2 were treated with Avidin followed by LXW7-bio or D-biotin as described in Example 5. 8×10^5 HCAECs were seeded per dish and cultured in EGM-2 media for 4 days. Cells were lysed using Extraction Kit (Thermo Fisher Scientific) and protein concentrations were determined using BCA Protein Assay (Thermo Fisher Scientific). Fifteen μg of each sample were loaded and separated using a 4-12% Bis-Tris NuPAGE gel (Thermo Fisher Scientific) and transferred to a nitrocellulose membrane. The membrane was blocked in 5% BSA in TBST (Tris-buffered saline with 0.5% Tween-20), and subsequently incubated with primary antibodies anti-VEGF Receptor 2, anti-Phospho-VEGF Receptor 2, anti-p44/42 MAPK (Erk1/2) and anti-Phospho-p44/42 MAPK (Erk1/2) (Thr202/Tyr204), all purchased from Cell Signaling Technologies, in 1% BSA overnight at 4° C. After washing three times with TBST, the membranes were incubated with respective horseradish peroxidase-conjugated secondary antibodies in 1% non-fat dry milk in TBST (BioRad) for 1 hour at room temperature. After washing, the protein bands were visualized using West Dura Substrate (Thermo Fisher Scientific) and quantified using Image J software.

[3] = test system: platelets; test: flow cytometry ligand-cell binding, platelets; conditions: biotinylated ligand 1 μM
Protocol: as §1, §2

[4] = test system: EGFR; test: mRNA level of EGFR on EPCs; format: cell-based; conditions: EPCs treated with LXW7
Protocol: FIG. 15 presents graphs of mRNA levels of VEGFR-2 (A) and EGFR (B) on EPCs after treating with different concentrations of LXW7 for 48 h. *P<0.05 vs. Control, #P<0.05 vs. 25 nM (n=10 per group).

[5] = molecular target: T1, integrin αIIbβ3 (Homo sapiens, UniProt P05106+P08514); test: flow cytometry ligand-cell binding, αIIbβ3-K562 cells; conditions: K562 cells highly expressing αIIbβ3
T1 construct: expressed in transfected cells; host or cells: K562 myeloid leukemia cells (αIIbβ3-K562), provided by Dr. Jennifer Cochran (Stanford University)
Protocol: as §1
Human coronary artery endothelial cells (HCAECs) were purchased from ATCC. Human cardiac microvascular endothelial cells (HMVECs) were purchased from Lonza. THP-1 monocytes were obtained from Dr. Pamela Lein (University of California, Davis). […]
LXW7-bio (1 μM) was incubated with 3×10^5 HECFCs, HCAECs, HMVECs, αvβ3-K562 and αIIbβ3-K562 cells and THP-1 monocytes and 1×10^8 platelets in binding buffer (HEPES containing 10% FBS) on ice for 30 minutes. […] Samples were analyzed on a BD Fortessa LSR Cell Analyzer and further data analysis and gating were performed using FlowJo software (Treestar, Inc.).

[6] = test system: HMVECs; test: flow cytometry ligand-cell binding, HMVECs; parameters: species or system human; conditions: biotinylated ligand 1 μM, streptavidin-phycoerythrin
Protocol: as §1, §2

[7] = test system: HECFCs; test: on-bead whole cell binding assay, HECFCs; format: cell-based, human
Source text: Endothelial colony forming cells (ECFCs), a subtype of EPCs also often referred to as outgrowth endothelial cells (OECs), were isolated from human umbilical cord blood as previously described (Williams et al. (2015) PloS One 10:e0123437; Ingram et al. (2004) Blood 104:2752). Human umbilical cord blood (10 U heparin/mL blood) was obtained from the UC Davis Umbilical Cord Blood Collection Program (UCBCP) and diluted 1:1 with Phosphate-buffered saline (PBS), without calcium and magnesium, pH 7.2 (Hyclone). Fifteen mL Ficoll-Paque PLUS (Amersham Biosciences) was laid at the bottom of 20 mL diluted blood and centrifuged at 2000 rpm for 30 minutes at room temperature. The hazy layer of mononuclear cells (MNCs) that seat at the interface between the Ficoll and serum was collected and dispensed into 50-mL conical tube containing 10 mL EBM-2 (Lonza) and centrifuged at 1500 rpm for 10 minutes at room temperature. The supernatant was carefully aspirated and the pellets were treated with red blood cell lysis buffer (eBioscience, Inc.) and then sorted by CD34 microbead magnetic sorting (Miltenyi Biotec GmbH) as per manufacturer's instructions. The CD34^+ cells were seeded on rat-tail collagen I (BD Biosciences Discovery) coated tissue culture plates and cultured in EGM-2 media (Lonza). After 24 h, non-adherent cells were removed and the media was changed daily to day 7 and every other day thereafter. ECFC-derived colonies appeared between day 4 and day 7 of culture with s typical endothelial cobblestone pattern. Individual colonies were isolated and expanded and allowed to grow to 80% to 90% confluency before first passage. ECFCs were used between P3 and P5 for all experiments.
HECFCs, HCAECs, HMVECs and THP-1 monocytes were cultured in their respective growth medium as described in Example 1. For cell bead-binding assay, 6×10^5 HECFCs, HCAECs, HMVECs or THP-1 monocytes in 2 mL of their respective culture medium were added to an ultra-low attachment 35-mm petri dish (Corning Incorporated) followed by resin beads (Lam et al. (1991) Nature 354:82). […]

cGRGDdvc [LXW7]
binding to THP-1 monocytes by flow cytometry [1]: did not bind to THP-1 monocytes | phosphorylation of VEGFR2 (Tyr1175) in ECs [2]: significantly increased | binding affinity with platelets by flow cytometry [3]: very low binding affinity with platelets | EGFR mRNA level [4]: increases in VEGFR2 and EGFR mRNA levels were found to be dependent on treatment time | binding to αIIbβ3-K562 cells by flow cytometry [5]: very low binding | binding affinity to HMVECs by flow cytometry [6]: higher binding affinity with different types of EPCs/ECs than conventional GRGD peptide | attachment of HECFCs to beads displaying LXW7 ([7]; 10 minutes, 30 minutes or 2 hours): efficiently supported attachment of EPCs/ECs from different sources; also recorded: efficiently supported EPC/EC attachment | binding of HECFCs to ligand-displaying resin beads ([7]; 2 hours incubation): bound both HECFCs and HCAECs
